These results are taken from patent publication US20040224972A1, “Medicinal compositions for concomitant use as anticancer agent” (priority 2000, published 2004).

Data set [1] concerns Human colon cancer strain Colo320D. M. xenograft. Briefly: Combined use of E7070 and 5-FU in human colon cancer Colo320D. M. xenograft model. It is filed as in vivo. The following applies: for Toxicity Dead/Treated: E7070 30 mg/kg/day QDx5, 5-FU 60 mg/kg/day Q4Dx3. The text has this:
Human colon cancer strain Colo320D.
A general note: A xenograft is tissue or cells of one species grown in another, often human tumour cells in immunodeficient mice.

The subject of data set [2] is Human colon cancer strain HCT15 xenograft. The following applies: E7070 30 mg/kg/day QDx5, CPT-11 75 mg/kg/day Q4Dx3; for Toxicity mRBW mean (minimum relative body weight): day of minimum in parentheses.
Experimental: Human colon cancer strain HCT15 (purchased from ATCC) was cultured in RPMI1640 (containing 10%FBS) in a 5%CO2gas incubator until it attained about 80% confluence, and the cells were harvested with trypsin-EDTA and suspended in Hanks balanced solution to prepare a suspension of 5×10^7 cells/ml. 0.1 ml of the cell suspension was implanted subcutaneously in each nude mouse. When the average tumor volume reached 182 mm3 after the implantation, E7070 in a dose of 30 mg/kg/day and/or CPT-11 in a dose of 75 mg/kg/day were administered either alone or in combination. E7070was intravenously administered once per day for 5 days (first to fifth days), while CPT-11 was intravenously administered 3 times (once every 4 days, that is, on the first, fifth and ninth days). After the administration was initiated, the longer and shorter diameters of the tumor were measured at the frequency of 2 times/week with digital calipers (Mitsutoyo), and the tumor volume was calculated according to the following equation.
(§1) Tumor volume=longer diameter of tumor (mm)×shorter diameter of tumor (mm)^2/2
(§2) The items for determination of antitumor effect were the following 2 items:
Tx4: The time in days for tumor size to attain 4 folds of initial size.
(§3) Minimum relative tumor volume (mRTV): Minimum value of relative tumor volume (RTV*)
(§4) *: Tumor volume on n days after first treatment/tumor volume at the start of treatment.
The test system of data set [3] is Human colon cancer strain SW620 xenograft. The data set can be described thus: Combined use of E7070 and CPT-11 in human colon cancer SW620 xenograft model. The following applies: E7070 25 mg/kg/day QDx5, CPT-11 62.5 mg/kg/day Q4Dx3.
Experimental: Human colon cancer strain SW620 (purchased from ATCC) was cultured in RPMI1640 (containing 10% FBS) in a 5% Co2gas incubator until it attained about 80% confluence, and the cells were harvested with trypsin-EDTA and suspended in Hanks balanced solution to prepare a suspension of 5×10^7 cells/ml. 0.1 ml of the cell suspension was implanted subcutaneously in each nude mouse. When the average tumor volume reached 226 mm^3 after the implantation, E7070 in a dose of 25 mg/kg/day and/or CPT-11 in a dose of 62.5 mg/kg/day were administered either alone or in combination. E7070 alone was intravenously administered once per day for 5 days (first to fifth days), while CPT-11 alone was intravenously administered 3 times (once every 4 days, that is, on the first, fifth and ninth days). Administration in combination was performed in 3 schedules, that is, simultaneous administration (E7070 on the first to fifth days; CPT-11 on the first, fifth and ninth days), previous administration of E7070 (E7070 on the first to fifth days; CPT-11 on the sixth, tenth and fourteenth days) and previous administration of CPT-11 (E7070 on the tenth to fourteenth days; CPT-11 on the first, fifth and ninth days). After the administration was initiated, the longer and shorter diameters of the tumor were measured at the frequency of 2 times/week with digital calipers (Mitsutoyo), and the tumor volume was calculated according to the following equation.
as §1, §2, §3, §4
In data set [4] the test system is Human colon cancer strain HCT15 xenograft. The data set can be described thus: Combined use of E7070 and MMC in human colon cancer HCT15 xenograft model. The format is in vivo. The following applies: E7070 QDx5, MMC 4.19 mg/kg/day QDx1; for Toxicity mRBW mean (minimum relative body weight): day of minimum in parentheses.
Experimental: Human colon cancer strain HCT15 (purchased from ATCC) was cultured in RPMI1640 (containing 10% FBS) in a 5% CO2gas incubator until it attained about 80% confluence, and the cells were harvested with trypsin-EDTA and suspended in Hanks balanced solution to prepare a suspension of 5×10^7 cells/ml. 0.1 ml of the cell suspension was implanted subcutaneously in each nude mouse. When the average tumor volume reached 156 mm3 after the implantation, E7070 in a dose of 25 mg/kg/day and/or MMC in a dose of 4.19 mg/kg/day were administered either alone or in combination. E7070was intravenously administered once per day for 5 days (first to fifth days), while MMC was intravenously administered once (first day). After the administration was initiated, the longer and shorter diameters of the tumor were measured at the frequency of 2 times/week with digital calipers (Mitsutoyo), and the tumor volume was calculated according to the following equation.
as §1, §2
For data set [5], the system named is Human breast cancer HBC4 xenograft. Briefly: Combined use of E7070 and capecitabine in human breast cancer HBC4 xenograft model. The format is in vivo, human cells in nude mouse. Conditions: nude mice, s.c. HBC4; E7070 30.625 mg/kg/day (87.5% MTD) day 1-5; capecitabine 1.3125 mmol/kg/day (87.5% MTD) 14 days; combination: E7070 day 1-5, capecitabine day 6-19. How it is done:
When the average tumor volume reached 114 mm3 after the implantation, E7070 in a dose of 30.625 mg/kg/day and/or capecitabine in a dose of 1.3125 mmol/kg/day were administered either alone or in combination.

A short description of data set [6]: Examination of gemcitabine hydrochloride, doxorubicin and taxol for synergistic effect (combined with E7070). Conditions: used in the composition with E7070; no data given.

Where a name gives a salt, the structure may show the parent alone. Read-outs that look alike come from different tables or passages of the source.

In the case of `O=c1[nH]cc(F)c(=O)[nH]1` [5-FU, 5-fluoro-2,4-(1H,3H)-pyrimidinedione], the “Toxicity Dead/Treated” value in data set [1] is recorded as 0/6. In addition, the “Tx4 (days) mean ± S.D.: time in days for tumor size to attain 4 folds of initial tumor size” value in data set [1] (nude mice, s.c. Colo320D. M., E7070 30 mg/kg/day i.v. QDx5, 5-FU 60 mg/kg/day i.v. Q4Dx3, + simultaneous, → sequential) worked out at 10.0 ± 0.7 days.

As to `CCc1c2c(nc3ccc(OC(=O)N4CCC(N5CCCCC5)CC4)cc13)-c1cc3c(c(=O)n1C2)COC(=O)[C@]3(O)CC` [CPT-11, [1,4′-Bipiperidine]-1′-carboxylicacid (S)-4,11-diethyl-3,4,12,14-tetrahydro-4-hydroxy-3,14-dioxo-1H-pyrano-[3′,4′:6,7]-indolizino[1,2-b]quinolin-9-yl ester Hydrochloride trihydrate], the “Toxicity Dead/Treated” value in data set [2] and in data set [3] was 0/6 in each case. Also, the “Toxicity mRBW mean (minimum relative body weight)” value is given as 0.94 (7, 10) in data set [2] and 0.99 (8) in data set [3] (day of minimum in parentheses).

On to `NS(=O)(=O)c1ccc(S(=O)(=O)Nc2cccc3c(Cl)c[nH]c23)cc1` [E7070, N-(3-chloro-1H-indol-7-yl)-4-sulfamoylbenzenesulfonamide], for which the “Toxicity Dead/Treated” value in data set [4], in data set [1], in data set [2] and in data set [3] was 0/6 in each case. Moreover, the “Toxicity mRBW mean (minimum relative body weight)” value in data set [4] was 0.93 (11); in data set [2] it was 0.92 (7); in data set [3] (day of minimum in parentheses), 0.98 (8). The “Tx4” value in data set [5] is reported as 50.0 ± 8.1 days. In addition, the “mRTV mean ± S.D. (minimum relative tumor volume)” value in data set [3] (day of minimum in parentheses) is 0.76 ± 0.42 (12).

With `CO[C@@]12[C@H](COC(N)=O)C3=C(C(=O)C(C)=C(N)C3=O)N1C[C@@H]1N[C@@H]12` [MMC, [1aS-(1aα,8β,8aα,8bα)]-6-amino-8-[[(aminocarbonyl)oxy]methyl]1,1a,2,8,8a,8b-hexahydro-8a-methoxy-5-methylazirino[2′,3′: 3,4]pyrrolo[1,2-a]indole-4,7-dione], in data set [4], the “Toxicity Dead/Treated” value is on record as 0/6 and the “Toxicity mRBW mean (minimum relative body weight)” value is listed as 0.99 (11).

As to `COc1cccc2c1C(=O)c1c(O)c3c(c(O)c1C2=O)C[C@@](O)(C(=O)CO)C[C@@H]3O[C@H]1C[C@H](N)[C@H](O)[C@H](C)O1` [doxorubicin, 10-[(3-amino-2,3,6-trideoxy-α-L-lyxo-hexopyranosyl)oxy]-7,8,9,10-tetrahydro-6,8,11-trihydroxy-8-(hydroxyacetyl)-1-methoxy-(8S-cis)-5,12-naphthacenedione], the “antitumor activity when examined for synergistic effect” value in data set [6] is recorded as “excellent antitumor activity”.

Regarding `Cl.Nc1ccn([C@@H]2O[C@H](CO)[C@@H](O)C2(F)F)c(=O)n1` [gemcitabine hydrochloride, 2′-deoxy-2′,2′-difluoro-cytidine hydrochloride], in data set [6], the “antitumor activity when examined for synergistic effect” value is given as “excellent antitumor activity”.
